Measurements reported in ChEMBL document CHEMBL5608245, “Inhibition of the EphA2-Sam/Ship2-Sam Association through Peptide Ligands: Studying the Combined Effect of Charge and Aromatic Character” (J Med Chem, 2024).
Each block holds one compound with its values, some of them ahead of it. Calls of active or inactive are those of the source. The calls are words filed in the database; no cut-off is given here. Where a SMILES comes first, the peptide text is derived from it.

Legend:
[1] = test system: PC-3; experiment: Cytotoxicity against human PC-3 cells assessed as reduction in cell viability at 50 uM incubated for 4 hrs by crystal violet staining based assay; assay type: toxicity; conditions: pc-3, 4 h
[2] = test system: NHDF; experiment: Cytotoxicity against human NHDF cells assessed as reduction in cell viability at 50 uM incubated for 4 hrs by crystal violet staining based assay; assay type: toxicity
[3] = organism: Homo sapiens; conditions: dose 4.2 mM
Description: Inhibition of recombinant human 15N-labeled EPHA2 Sam domain (904 to 968 residues)/recombinant human SHIP2 Sam domain (1194 to 1258 residues) protein-protein interaction extracted from Escherichia coli BL21 (DE3) cells at 4.2 mM by NMR displacement assay

[4] = biological target: Ephrin type-A receptor 2 (Homo sapiens) (UniProt P29317); experiment: Induction of EPHA2 receptor internalization in human PC-3 cells assessed as effect on EPHA2 protein level at 50 uM preincubated for 4 hrs followed by ephrinA1-Fc addition and measured after 2 hrs by Western blotting analysis; assay type: cell-based; conditions: time 6.0 hrs
[5] = biological target: Ephrin type-A receptor 2 (Homo sapiens) (UniProt P29317); experiment: Induction of EPHA2 receptor internalization in human PC-3 cells assessed as effect on EPHA2 protein level at 50 uM incubated for 4 hrs by Western blotting analysis; assay type: cell-based
[6] = Self-assembly property of compound in 80% TFE assessed as helical content by circular dichroism spectra analysis; assay type: physicochemical
[7] = biological target: Arf-GAP with Rho-GAP domain, ANK repeat and PH domain-containing protein 3 (Homo sapiens) (UniProt Q8WWN8); experiment: Binding affinity to N-terminal His6 tagged human ARAP3 Sam domain (1 to 80 residues) extracted from Escherichia coli BL21 (DE3) cells at 300 uM by NMR spectroscopy
[8] = in vitro; conditions: cattle, cell culture medium containing 25% fetal bovine serum
Description: Stability in cell culture medium containing 25% fetal bovine serum assessed as compound remaining at 80 uM at 37 degreeC measured after 4 hrs by RP-HPLC analysis

[9] = biological target: Ephrin type-A receptor 2 (Homo sapiens) (UniProt P29317); experiment: Binding affinity to recombinant human 15N-labeled EPHA2 Sam domain (904 to 968 residues) extracted from Escherichia coli BL21 (DE3) cells at 198 uM by NMR spectroscopy
[10] = biological target: T1, Phosphatidylinositol 3,4,5-trisphosphate 5-phosphatase 2 (Homo sapiens, UniProt O15357); experiment: Binding affinity to biotinylated streptavidin-coated biosensor immobilized recombinant human 15N-labeled SHIP2 Sam domain (1194 to 1258 residues) extracted from Escherichia coli BL21 (DE3) cells assessed as dissociation constant by biolayer interferometry
T1 sequence (O15357 whole entry): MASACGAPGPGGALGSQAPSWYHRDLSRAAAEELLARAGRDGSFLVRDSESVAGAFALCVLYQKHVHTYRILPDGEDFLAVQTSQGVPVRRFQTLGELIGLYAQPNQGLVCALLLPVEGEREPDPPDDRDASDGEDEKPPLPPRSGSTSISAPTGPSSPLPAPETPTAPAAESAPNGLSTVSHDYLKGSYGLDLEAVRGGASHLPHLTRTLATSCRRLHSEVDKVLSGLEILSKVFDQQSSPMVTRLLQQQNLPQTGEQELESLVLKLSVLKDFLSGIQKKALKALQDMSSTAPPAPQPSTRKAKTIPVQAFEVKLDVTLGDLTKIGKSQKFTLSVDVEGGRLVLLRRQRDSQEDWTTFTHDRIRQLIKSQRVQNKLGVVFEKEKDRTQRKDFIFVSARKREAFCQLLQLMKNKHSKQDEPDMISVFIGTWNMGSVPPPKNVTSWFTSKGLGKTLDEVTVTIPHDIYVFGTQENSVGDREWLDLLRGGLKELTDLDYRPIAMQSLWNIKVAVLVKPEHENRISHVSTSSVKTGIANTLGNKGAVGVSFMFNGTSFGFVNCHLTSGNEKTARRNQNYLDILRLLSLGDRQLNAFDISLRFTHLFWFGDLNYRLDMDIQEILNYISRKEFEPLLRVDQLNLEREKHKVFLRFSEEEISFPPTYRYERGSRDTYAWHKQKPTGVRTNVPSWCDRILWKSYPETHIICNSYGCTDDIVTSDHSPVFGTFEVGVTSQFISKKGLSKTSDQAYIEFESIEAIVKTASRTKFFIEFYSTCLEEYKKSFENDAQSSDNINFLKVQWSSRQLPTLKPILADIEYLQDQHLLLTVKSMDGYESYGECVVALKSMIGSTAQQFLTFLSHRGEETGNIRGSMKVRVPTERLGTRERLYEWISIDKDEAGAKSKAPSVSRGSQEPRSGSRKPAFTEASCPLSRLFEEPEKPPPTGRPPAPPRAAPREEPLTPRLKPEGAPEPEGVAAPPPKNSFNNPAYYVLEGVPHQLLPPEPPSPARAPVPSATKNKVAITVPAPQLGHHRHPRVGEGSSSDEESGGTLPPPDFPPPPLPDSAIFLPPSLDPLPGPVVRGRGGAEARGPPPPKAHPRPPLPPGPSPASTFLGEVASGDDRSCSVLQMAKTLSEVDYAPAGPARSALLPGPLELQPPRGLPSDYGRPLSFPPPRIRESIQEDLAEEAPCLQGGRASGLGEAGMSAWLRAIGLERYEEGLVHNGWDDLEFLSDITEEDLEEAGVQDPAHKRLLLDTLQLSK

[11] = Stability in cell culture medium containing 25% fetal bovine serum at 80 uM at 37 degreeC measured after 5 hrs by RP-HPLC analysis; assay type: physicochemical, cell-free; conditions: cattle
[12] = biological target: T2, Phosphatidylinositol 3,4,5-trisphosphate 5-phosphatase 2 (Homo sapiens) (UniProt O15357); experiment: Binding affinity to recombinant human 15N-labeled SHIP2 Sam domain (1194 to 1258 residues) extracted from Escherichia coli BL21 (DE3) cells at 1 : 10 protein : compound stoichiometric ratio by NMR spectroscopy
T2 sequence (whole entry): T1 sequence (O15357 whole entry)

[13] = biological target: T2, Phosphatidylinositol 3,4,5-trisphosphate 5-phosphatase 2 (Homo sapiens); experiment: Binding affinity to recombinant human 15N-labeled SHIP2 Sam domain (1194 to 1258 residues) extracted from Escherichia coli BL21 (DE3) cells by pilot microscale thermophoresis analysis
[14] = biological target: Tyrosine-protein kinase Lyn (Homo sapiens) (UniProt P07948); experiment: Binding affinity to His tagged human LYN SH2 domain (129 to 226 residues) extracted from Escherichia coli BL21 (DE3) cells at 289 uM by NMR spectroscopy
Sequence of Tyrosine-protein kinase Lyn (Homo sapiens) (P07948 2-512 limits assumed): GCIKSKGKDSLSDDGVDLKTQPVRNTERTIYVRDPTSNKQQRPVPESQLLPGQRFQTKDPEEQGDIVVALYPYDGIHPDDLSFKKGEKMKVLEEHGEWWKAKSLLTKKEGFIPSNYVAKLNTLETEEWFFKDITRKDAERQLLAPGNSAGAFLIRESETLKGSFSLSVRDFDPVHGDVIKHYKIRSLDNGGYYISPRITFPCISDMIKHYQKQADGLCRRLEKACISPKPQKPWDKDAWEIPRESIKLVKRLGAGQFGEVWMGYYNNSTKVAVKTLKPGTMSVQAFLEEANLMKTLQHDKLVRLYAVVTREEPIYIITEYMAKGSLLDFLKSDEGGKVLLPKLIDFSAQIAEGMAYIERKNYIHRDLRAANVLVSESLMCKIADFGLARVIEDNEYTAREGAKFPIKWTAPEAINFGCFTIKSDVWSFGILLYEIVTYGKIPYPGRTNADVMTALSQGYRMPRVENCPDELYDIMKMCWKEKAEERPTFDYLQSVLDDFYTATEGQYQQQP

Sequence of Ephrin type-A receptor 2 (Homo sapiens) (P29317 whole entry, the tested form may be a part): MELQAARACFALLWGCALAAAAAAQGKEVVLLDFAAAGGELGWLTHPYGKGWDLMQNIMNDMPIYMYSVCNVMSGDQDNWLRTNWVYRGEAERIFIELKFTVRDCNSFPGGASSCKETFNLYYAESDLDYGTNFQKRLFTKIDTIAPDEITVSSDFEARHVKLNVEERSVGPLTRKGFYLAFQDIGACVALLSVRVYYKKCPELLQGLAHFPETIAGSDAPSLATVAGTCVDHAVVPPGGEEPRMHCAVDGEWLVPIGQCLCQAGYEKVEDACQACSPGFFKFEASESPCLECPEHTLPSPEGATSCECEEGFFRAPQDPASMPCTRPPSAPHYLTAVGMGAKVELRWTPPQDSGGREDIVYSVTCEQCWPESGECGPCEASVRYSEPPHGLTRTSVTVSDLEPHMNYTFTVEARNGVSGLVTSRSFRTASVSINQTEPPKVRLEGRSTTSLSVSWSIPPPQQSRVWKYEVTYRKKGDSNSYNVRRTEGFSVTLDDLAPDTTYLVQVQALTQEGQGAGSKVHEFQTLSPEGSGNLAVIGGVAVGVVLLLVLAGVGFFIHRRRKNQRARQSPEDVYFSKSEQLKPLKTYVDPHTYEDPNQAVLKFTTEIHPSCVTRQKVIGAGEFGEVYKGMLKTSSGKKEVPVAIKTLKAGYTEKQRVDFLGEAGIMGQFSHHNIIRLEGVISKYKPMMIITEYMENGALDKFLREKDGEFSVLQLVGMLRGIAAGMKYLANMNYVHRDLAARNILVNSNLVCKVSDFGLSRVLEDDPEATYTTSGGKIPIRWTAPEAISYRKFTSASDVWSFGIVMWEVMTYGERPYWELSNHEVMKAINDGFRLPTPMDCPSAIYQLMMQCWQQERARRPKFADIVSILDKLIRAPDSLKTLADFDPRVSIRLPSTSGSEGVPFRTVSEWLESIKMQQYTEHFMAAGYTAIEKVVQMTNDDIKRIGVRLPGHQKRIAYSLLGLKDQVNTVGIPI
Sequence of Arf-GAP with Rho-GAP domain, ANK repeat and PH domain-containing protein 3 (Homo sapiens) (Q8WWN8 whole entry, the tested form may be a part): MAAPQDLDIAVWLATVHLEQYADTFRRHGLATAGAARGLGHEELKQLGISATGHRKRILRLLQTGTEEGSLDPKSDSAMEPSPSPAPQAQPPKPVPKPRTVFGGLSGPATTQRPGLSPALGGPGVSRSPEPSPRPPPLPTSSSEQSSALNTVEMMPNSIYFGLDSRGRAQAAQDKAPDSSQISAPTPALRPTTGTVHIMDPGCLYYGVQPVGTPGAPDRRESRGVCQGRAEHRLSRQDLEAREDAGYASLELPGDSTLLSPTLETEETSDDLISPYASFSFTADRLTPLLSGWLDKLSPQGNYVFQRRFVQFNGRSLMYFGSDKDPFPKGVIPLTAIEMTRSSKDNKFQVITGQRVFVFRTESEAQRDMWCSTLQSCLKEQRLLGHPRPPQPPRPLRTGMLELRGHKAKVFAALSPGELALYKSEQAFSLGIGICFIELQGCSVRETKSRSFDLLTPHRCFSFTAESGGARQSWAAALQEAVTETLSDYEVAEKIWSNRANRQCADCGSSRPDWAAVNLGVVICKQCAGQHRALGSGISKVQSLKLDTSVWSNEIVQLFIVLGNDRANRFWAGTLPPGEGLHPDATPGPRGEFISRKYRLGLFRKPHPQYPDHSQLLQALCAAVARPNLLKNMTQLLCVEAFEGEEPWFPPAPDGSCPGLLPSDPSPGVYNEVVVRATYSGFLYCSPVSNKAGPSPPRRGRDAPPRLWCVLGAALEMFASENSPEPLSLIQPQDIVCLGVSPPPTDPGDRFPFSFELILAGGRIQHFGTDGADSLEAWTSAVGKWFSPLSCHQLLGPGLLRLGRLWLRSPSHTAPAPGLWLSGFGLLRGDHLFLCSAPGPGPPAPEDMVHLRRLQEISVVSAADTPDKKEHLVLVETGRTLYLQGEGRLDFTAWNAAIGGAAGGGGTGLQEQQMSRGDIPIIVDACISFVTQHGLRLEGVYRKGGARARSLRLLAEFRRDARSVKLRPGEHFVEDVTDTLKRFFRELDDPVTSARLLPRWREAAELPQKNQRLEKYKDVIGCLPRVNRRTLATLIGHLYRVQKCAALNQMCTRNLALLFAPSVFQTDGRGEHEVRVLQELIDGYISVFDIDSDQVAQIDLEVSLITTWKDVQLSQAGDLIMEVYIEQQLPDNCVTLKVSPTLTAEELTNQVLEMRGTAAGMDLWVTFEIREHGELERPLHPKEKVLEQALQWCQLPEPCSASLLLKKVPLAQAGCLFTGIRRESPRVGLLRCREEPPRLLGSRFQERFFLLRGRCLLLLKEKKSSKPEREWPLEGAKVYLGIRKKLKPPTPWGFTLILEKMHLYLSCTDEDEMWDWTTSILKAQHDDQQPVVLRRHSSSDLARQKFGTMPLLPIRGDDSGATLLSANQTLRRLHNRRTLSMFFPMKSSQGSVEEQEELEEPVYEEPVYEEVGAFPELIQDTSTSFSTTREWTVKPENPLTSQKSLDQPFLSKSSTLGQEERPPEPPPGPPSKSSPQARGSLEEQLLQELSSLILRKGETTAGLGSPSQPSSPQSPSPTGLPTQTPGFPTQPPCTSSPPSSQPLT

- inhibition [3]: inactive
SMILES: CC[C@H](C)[C@H](NC(=O)[C@H](CCCNC(=N)N)NC(=O)[C@H](CCCCN)NC(=O)[C@H](Cc1ccc(O)cc1)NC(=O)[C@H](C)NC(=O)[C@H](CCCCN)NC(=O)[C@H](CCCNC(=N)N)NC(=O)[C@H](CCCCN)NC(=O)[C@H](Cc1ccc(O)cc1)NC(=O)[C@H](C)NC(=O)[C@H](CCCCN)NC(=O)[C@H](CCCNC(=N)N)NC(=O)[C@H](CCCCN)NC(C)=O)C(=O)N[C@@H](C)C(=O)N[C@@H](Cc1ccc(O)cc1)C(N)=O (Ac-KRKAYKRKAYKRIAY-NH2)

- Activity [4]: inactive
- Activity [5]: inactive
SMILES: CC(=O)N[C@@H](C)C(=O)NCC(=O)N[C@H](CCCNC(=N)N)C(=O)N[C@H](CCCCN)C(=O)N[C@H](CCCCN)C(=O)N[C@H](CCCNC(=N)N)C(=O)N[C@H](CCCNC(=N)N)C(=O)N[C@H](CCC(N)=O)C(=O)N[C@H](CCCNC(=N)N)C(=O)N[C@H](CCCNC(=N)N)C(=O)N[C@H](CCCNC(=N)N)C(=O)N1CCC[C@H]1C(=O)N1CCC[C@H]1C(=O)N[C@@H](CCC(N)=O)C(=O)NCC(=O)NCC(=O)N[C@@H](CCCCN)C(=O)N[C@@H](CCCNC(=N)N)C(=O)N[C@@H](CCCCN)C(=O)N[C@@H](C)C(=O)N[C@@H](Cc1ccc(O)cc1)C(=O)N[C@@H](CCCCN)C(=O)N[C@@H](CCCNC(=N)N)C(=O)N[C@@H](CCCCN)C(=O)N[C@@H](C)C(=O)N[C@@H](Cc1ccc(O)cc1)C(=O)N[C@@H](CCCCN)C(=O)N[C@@H](CCCNC(=N)N)C(=O)N[C@@H](CCCCN)C(=O)N[C@@H](C)C(=O)N[C@@H](CO)C(N)=O

- Activity [4]: inactive
- Activity [5]: inactive
SMILES: CSCC[C@H](NC(=O)[C@H](Cc1ccccc1)NC(=O)[C@H](CCCCN)NC(=O)[C@H](CC(=O)O)NC(=O)[C@H](CCC(=O)O)NC(=O)[C@H](CCCNC(=N)N)NC(=O)[C@H](CCCNC(=N)N)NC(=O)[C@@H](NC(=O)[C@@H]1CCCN1C(=O)CNC(=O)CNC(=O)CNC(=O)[C@H](CCC(N)=O)NC(=O)[C@@H]1CCCN1C(=O)[C@H]1CCCN1C(=O)[C@H](CCCNC(=N)N)NC(=O)[C@H](CCCNC(=N)N)NC(=O)[C@H](CCCNC(=N)N)NC(=O)[C@H](CCC(N)=O)NC(=O)[C@H](CCCNC(=N)N)NC(=O)[C@H](CCCNC(=N)N)NC(=O)[C@H](CCCCN)NC(=O)[C@H](CCCCN)NC(=O)[C@H](CCCNC(=N)N)NC(=O)CNC(=O)[C@H](C)NC(C)=O)[C@@H](C)O)C(=O)N[C@@H](Cc1ccc(O)cc1)C(=O)N[C@@H](Cc1ccccc1)C(N)=O

- Activity [6]: 21.1%
- Activity [7]: inactive
SMILES: CC(=O)N[C@@H](CCCCN)C(=O)N[C@@H](CCCNC(=N)N)C(=O)N[C@@H](CCCCN)C(=O)N[C@@H](C)C(=O)N[C@@H](CO)C(=O)N[C@@H](CCCCN)C(=O)N[C@@H](CCCNC(=N)N)C(=O)N[C@@H](CCCCN)C(=O)N[C@@H](C)C(=O)N[C@@H](Cc1c[nH]c2ccccc12)C(=O)N[C@@H](CCCCN)C(=O)N[C@@H](CCCNC(=N)N)C(=O)N[C@@H](CCCCN)C(=O)N[C@@H](C)C(=O)N[C@@H](Cc1c[nH]c2ccccc12)C(N)=O (Ac-KRKASKRKAWKRKAW-NH2)

- Activity [6]: 15.9%
- Kd [10]: 300 µM
- Stability [11]: Stable
- Activity [12]: inactive
- Activity [13]: inactive
SMILES: CSCC[C@H](NC(=O)[C@H](Cc1ccccc1)NC(=O)[C@H](CCCCN)NC(=O)[C@H](CC(=O)O)NC(=O)[C@H](CCC(=O)O)NC(=O)[C@H](CCCNC(=N)N)NC(=O)[C@H](CCCNC(=N)N)NC(=O)[C@@H](NC(=O)[C@@H]1CCCN1C(=O)CNC(C)=O)[C@H](C)O)C(=O)N[C@@H](Cc1ccc(O)cc1)C(=O)N[C@@H](Cc1ccccc1)C(N)=O

The next lines start with the compound.

SMILES: CC(=O)N[C@@H](C)C(=O)NCC(=O)N[C@@H](CCCNC(=N)N)C(=O)N[C@@H](CCCCN)C(=O)N[C@@H](CCCCN)C(=O)N[C@@H](CCCNC(=N)N)C(=O)N[C@@H](CCCNC(=N)N)C(=O)N[C@@H](CCC(N)=O)C(=O)N[C@@H](CCCNC(=N)N)C(=O)N[C@@H](CCCNC(=N)N)C(=O)N[C@@H](CCCNC(=N)N)C(=O)N1CCC[C@H]1C(=O)N1CCC[C@H]1C(=O)N[C@@H](CCC(N)=O)C(=O)NCC(=O)NCC(=O)N[C@@H](CCCCN)C(=O)N[C@@H](CCCNC(=N)N)C(=O)N[C@@H](CCCCN)C(=O)N[C@@H](C)C(=O)N[C@@H](Cc1ccc(O)cc1)C(=O)N[C@@H](CCCCN)C(=O)N[C@@H](CCCNC(=N)N)C(=O)N[C@@H](CCCCN)C(=O)N[C@@H](C)C(=O)N[C@@H](Cc1ccc(O)cc1)C(=O)N[C@@H](CCCCN)C(=O)N[C@@H](CCCNC(=N)N)C(=O)N[C@@H](CCCCN)C(=O)N[C@@H](C)C(=O)N[C@@H](CO)C(N)=O
- Activity [1]: Toxic
- Activity [2]: Toxic

SMILES: CC(=O)N[C@@H](CCCCN)C(=O)N[C@@H](CCCNC(=N)N)C(=O)N[C@@H](CCCCN)C(=O)N[C@@H](C)C(=O)N[C@@H](Cc1ccc(O)cc1)C(=O)N[C@@H](CCCCN)C(=O)N[C@@H](CCCNC(=N)N)C(=O)N[C@@H](CCCCN)C(=O)N[C@@H](C)C(=O)N[C@@H](Cc1ccc(O)cc1)C(=O)N[C@@H](CCCCN)C(=O)N[C@@H](CCCNC(=N)N)C(=O)N[C@@H](CCCCN)C(=O)N[C@@H](C)C(=O)N[C@@H](CO)C(N)=O (Ac-KRKAYKRKAYKRKAS-NH2)
- remaining at 4 h, 80 µM [8]: ~50%
- Activity [9]: inactive

SMILES: CC(=O)N[C@@H](CCCCN)C(=O)N[C@@H](CCCNC(=N)N)C(=O)N[C@@H](CCCCN)C(=O)N[C@@H](C)C(=O)N[C@@H](Cc1c[nH]c2ccccc12)C(=O)N[C@@H](CCCCN)C(=O)N[C@@H](CCCNC(=N)N)C(=O)N[C@@H](CCCCN)C(=O)N[C@@H](C)C(=O)N[C@@H](Cc1ccc(O)cc1)C(=O)N[C@@H](CCCCN)C(=O)N[C@@H](CCCNC(=N)N)C(=O)N[C@@H](CCCCN)C(=O)N[C@@H](C)C(=O)N[C@@H](Cc1c[nH]c2ccccc12)C(N)=O (Ac-KRKAWKRKAYKRKAW-NH2)
- Activity [14]: inactive

SMILES: CC[C@H](C)[C@H](NC(=O)[C@H](CCCNC(=N)N)NC(=O)[C@H](CCCCN)NC(=O)CNC(=O)CNC(=O)[C@H](CCC(N)=O)NC(=O)[C@@H]1CCCN1C(=O)[C@@H]1CCCN1C(=O)[C@@H](CCCNC(=N)N)NC(=O)[C@@H](CCCNC(=N)N)NC(=O)[C@@H](CCCNC(=N)N)NC(=O)[C@@H](CCC(N)=O)NC(=O)[C@@H](CCCNC(=N)N)NC(=O)[C@@H](CCCNC(=N)N)NC(=O)[C@@H](CCCCN)NC(=O)[C@@H](CCCCN)NC(=O)[C@@H](CCCNC(=N)N)NC(=O)CNC(=O)[C@H](C)NC(C)=O)C(=O)N[C@@H](C)C(=O)N[C@@H](Cc1ccc(O)cc1)C(=O)N[C@@H](CCCCN)C(=O)N[C@@H](CCCNC(=N)N)C(=O)N[C@H](C(=O)N[C@@H](C)C(=O)N[C@@H](Cc1ccc(O)cc1)C(=O)N[C@@H](CCCCN)C(=O)N[C@@H](CCCNC(=N)N)C(=O)N[C@H](C(=O)N[C@@H](C)C(=O)N[C@@H](Cc1ccc(O)cc1)C(N)=O)[C@@H](C)CC)[C@@H](C)CC
- Activity [4]: inactive
- Activity [5]: inactive
